{
  "source": "patent US4221909A",
  "about": "“P-Acetamidobenzoic acid salts of 9-(hydroxyalkyl) purines” (Sloan-Kettering Institute for Cancer Research, priority 1978, dated 1980)",
  "assay_type_in_all_cases": "cell-based",
  "key": {"[1]": {"tested_on": "influenza virus", "experiment": "Anti-influenza activity (summary)"}, "[2]": {"tested_on": "human peripheral blood lymphocytes", "experiment": "Mitogen Induced (PHA) Human Lymphocyte Proliferation"}, "[3]": {"tested_on": "Mouse spleen cells", "experiment": "Mitogen Induced (Con A) Mouse Lymphocyte Proliferation", "description": "The following three assay procedures are used to evaluate the ability of the test substances to modulate the activity of several classes of cells in the immune system. In these systems it is possible to identify both immunopotentiating activity (evidence by an enhancement of the parameter examined) as well as immunosuppressant activity (evidenced by an inhibition of the parameter examined).\n1. Mitogen--Induced Mouse Spleen Cell Assay--Mouse spleen cells contain a population of both B and T lymphocytes which can be stimulated by a number of foreign substances (e.g., plant mitogens such as Con A) to proliferate. This enhanced proliferation is an indication of enhanced cell mediated immunity. The method below describes the system used to evaluate test substances as immunopotentiators.\nConcanavalin A (Calbiochem, La Jolla, Calif.), Lot #210073, lyophilized in NaCl, was prepared first as a 1% solution and diluted as a 2× concentration for each dilution (0.5, 1.0, 2.5 μg/ml).\nSix to eight week old male Balb/c and C3 H inbred mice were obtained from the following sources: Flow Research Animals, Inc., Dublin, Va.; Charles River Breeding Laboratories, Wilmington, Mass.; Laboratory Supply Company, Indianapolis, Ind.; and Lionel Strong Foundation, San Diego, Calif.\nThree to five mice were sacrificed by cervical dislocation and the spleens aseptically removed. Pooled spleens were minced and teased with sterile forceps; then strained through a double layer of nylon mesh. The cell suspension was washed once with 15 ml of RPMI 1640 supplemented with 5% fetal calf serum and antibiotics. Cells were cultured at a concentration of 10^6 cells/0.1 ml/well in micro-plates. Cultures were incubated in the presence or absence of mitogen in a humidified atmosphere containing 5% CO2 for 48 hours. The test compound was added to cultures at various concentrations concommitant with mitogen.\nProliferation was assayed by the degree of incorporation of 1.0 μCi of [^3 H] thymidine over an 18 hour incubation period. Cultures were harvested by a MASH unit (Otto Hiller Co., Madison, Wisconsin) and thymidine incorporation was assayed by liquid scintillation spectrometry. Cultures were performed in triplicate and data are expressed as means plus or minus the strandard error of the experimental means. Drug stimulation indices over control values were also calculated and portrayed graphically."}},
  "note": "Where a name gives a salt, the structure may show the parent alone.",
  "data": [
    {"smiles": "CCCCCC[C@H]([C@H](C)O)n1cnc2c(N)ncnc21", "note": "(relative stereo) [NPT 15426, Erythro-9-(2-Hydroxy-3-Nonyl)-Adenine. HCl]", "values": [
      {"measurement": "anti-influenza activity by themselves", "setting": "[1]", "result": "significant anti-influenza activity"},
      {"measurement": "Maximum Percent Change, Mitogen Induced (PHA) Human Lymph. Prolif.", "setting": "[2]; 1.0-10", "result": -41, "unit": "%"},
      {"measurement": "Maximum Percent Change, Mitogen Induced (PHA) Human Lymph. Prolif.", "setting": "[2]; .01-1.0", "result": 6, "unit": "%"},
      {"measurement": "Maximum Percent Change, Mitogen Induced (Con A) Mouse Lymph. Prolif.", "setting": "[3]; 1.0-10", "result": -85, "unit": "%"},
      {"measurement": "Maximum Percent Change, Mitogen Induced (Con A) Mouse Lymph. Prolif.", "setting": "[3]; 10-100", "result": -91, "unit": "%"},
      {"measurement": "Maximum Percent Change, Mitogen Induced (Con A) Mouse Lymph. Prolif.", "setting": "[3]; .01-1.0", "result": -50, "unit": "%"}
    ]}
  ]
}
